Measured values from US7592336B2, “Hepatitis C virus inhibitors” (Bristol-Myers Squibb Company, priority 2005, dated 2009).

What was measured:
[1] = target: T1, HCV NS3/4A protease complex, J4L6S strain (Hepatitis C virus genotype 1b, UniProt O92972, C1454S/C1711G); experiment: FRET peptide assay to monitor HCV NS3/4A proteolytic activity (J4L6S strain); format: biochemical, HCV genotype 1b; settings: read-out: IC50 against NS3/4A J4L6S strain
T1 construct: DNA encoding the recombinant HCV NS3/4A protease complex (amino acids 1027 to 1711) for these strains; inferred from pET21b vector and Ni-NTA purification; made in house; host or cells: Escherichia coli BL21 (DE3), pET21b
T1 sequence (O92972 1027-1711 C1454S/C1711G, one chain of several): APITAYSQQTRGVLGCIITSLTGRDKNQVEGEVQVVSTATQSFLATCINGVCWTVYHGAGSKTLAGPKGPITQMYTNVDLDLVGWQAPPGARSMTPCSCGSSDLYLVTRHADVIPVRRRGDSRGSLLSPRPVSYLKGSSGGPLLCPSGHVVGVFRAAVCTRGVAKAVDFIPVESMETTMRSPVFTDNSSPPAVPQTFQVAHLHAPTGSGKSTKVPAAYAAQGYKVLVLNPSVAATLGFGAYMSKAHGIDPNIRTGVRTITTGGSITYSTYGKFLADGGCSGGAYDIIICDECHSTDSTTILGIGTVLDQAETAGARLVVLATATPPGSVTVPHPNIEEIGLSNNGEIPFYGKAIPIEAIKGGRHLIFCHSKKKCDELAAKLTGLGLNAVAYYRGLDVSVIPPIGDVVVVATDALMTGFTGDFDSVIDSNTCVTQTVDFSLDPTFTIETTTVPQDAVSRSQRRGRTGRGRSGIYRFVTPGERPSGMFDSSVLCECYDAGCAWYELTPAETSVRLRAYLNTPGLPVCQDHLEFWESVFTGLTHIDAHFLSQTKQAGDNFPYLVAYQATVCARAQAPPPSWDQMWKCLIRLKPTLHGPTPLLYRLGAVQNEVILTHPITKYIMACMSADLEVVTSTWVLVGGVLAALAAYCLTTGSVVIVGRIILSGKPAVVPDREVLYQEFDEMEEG
Source text: HCV NS3 protease complexes, derived from the BMS strain, H77 strain or J4L6S strain, were generated, as described below. These purified recombinant proteins were generated for use in a homogeneous assay (see below) to provide an indication of how effective compounds of the present disclosure would be in inhibiting HCV NS3 proteolytic activity.
The H77 and J4L6S strains were used for production of recombinant NS3/4A protease complexes. DNA encoding the recombinant HCV NS3/4A protease complex (amino acids 1027 to 1711) for these strains were manipulated as described by P. Gallinari et al. (see Gallinari P, Paolini C, Brennan D, Nardi C, Steinkuhler C, De Francesco R. Biochemistry. 38(17):5620-32, (1999)). Briefly, a three-lysine solubilizing tail was added at the 3′-end of the NS4A coding region. The cysteine in the P1 position of the NS4A-NS4B cleavage site (amino acid 1711) was changed to a glycine to avoid the proteolytic cleavage of the lysine tag. Furthermore, a cysteine to serine mutation was introduced by PCR at amino acid position 1454 to prevent the autolytic cleavage in the NS3 helicase domain. […]

[2] = target: T2, human neutrophil elastase (HNE) (Homo sapiens, UniProt P08246); experiment: Specificity assay, neutrophil elastase; format: biochemical; settings: 2 h enzyme-inhibitor pre-incubation; read-out: HLE activity in the specificity assays (IC50)
T2 construct: purchased Sigma
T2 sequence (P08246 30-267): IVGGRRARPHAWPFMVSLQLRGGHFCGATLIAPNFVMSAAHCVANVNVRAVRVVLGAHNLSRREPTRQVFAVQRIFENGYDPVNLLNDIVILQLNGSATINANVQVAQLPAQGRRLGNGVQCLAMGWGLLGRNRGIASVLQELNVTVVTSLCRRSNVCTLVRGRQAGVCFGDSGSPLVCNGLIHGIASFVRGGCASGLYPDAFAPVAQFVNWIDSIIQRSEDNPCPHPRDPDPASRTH
Experimental: The specificities of compounds of the present disclosure were determined against a variety of serine proteases: human neutrophil elastase (HNE), porcine pancreatic elastase (PPE) and human pancreatic chymotrypsin and one cysteine protease: human liver cathepsin B. In all cases a 96-well plate format protocol using calorimetric p-nitroaniline (pNA) substrate specific for each enzyme was used as described previously (PCT Patent Application No. WO 00/09543) with some modifications to the serine protease assays. All enzymes were purchased from Sigma while the substrates were from Bachem.
Each assay included a 2 h enzyme-inhibitor pre-incubation at room temperature followed by addition of substrate and hydrolysis to 30% conversion as measured on a Spectramax Pro microplate reader. Compound concentrations varied from 100 to 0.4 μM depending on their potency. […]
The percentage of inhibition was calculated using the formula: [1−((UVinh−UVblank)/(UVctl−UVblank))]×100 […]

**Q.** With C=C[C@@H]1C[C@]1(NC(=O)[C@@H]1C[C@@](O)(c2ccc(-c3ccccc3)cc2)CN1C(=O)[C@@H](NC(=O)OC(C)(C)C)C(C)(C)C)C(=O)NS(=O)(=O)C1CC1 [Compound 3] as the molecule, how does the IC50 [1] read?
**A.** 0.9 nM

**Q.** What about the IC50 [2] of the same molecule?
**A.** > 100 µM
